The test system of assay [1] is control Drosophila S2 cells. In words: Cytokinesis / multinucleation assay in control Drosophila S2 cells. It is filed as cell-based. The following applies: 50 μM, 24 hours. As to the method: (§1) Drosophila S2 cells were grown in Schneider's Drosophila medium complemented with FBS, Penicillin and Streptomycin (Invitrogen). […] Cells were fixed and labelled for F-Actin (red) and DNA (blue). Images are shown in FIGS. 1(a) to 1(c) in which stars mark multinucleated cells. The histogram of FIG. 2 represents the percentage of multinucleated cells quantified following the indicated treatments. Each P-values were calculated against dOCRL dsRNA treated cells.

The test system of assay [2] is dOCRL dsRNA treated Drosophila S2 cells. In words: Cytokinesis / multinucleation assay in dOCRL dsRNA treated Drosophila S2 cells. It is filed as cell-based. The following applies: dOCRL depleted S2 cells, 50 μM, 24 hours. The protocol: as §1
The test system of assay [3] is renal epithelial cells from a Lowe syndrome patient. In words: Abscission assay (time-lapse) in renal epithelial cells from a Lowe syndrome patient. It is filed as cell-based, human. The following applies: 25 μM, 60 hours time-lapse recording. The protocol: (§2) Further tests were carried out using human cellular models for the Lowe syndrome.
In this experiment, normal renal epithelial cells from a donor not mutated in OCRL1 and renal epithelial cells from a Lowe syndrome patient were grown in DMEM/F12 (Gibco BRL) supplemented with 10% fetal bovine serum, ITS supplemented, 4 pg/mL triiodothyronine, 36 ng/mL dexamethasone, 10 ng/ml EGF, 100 U/mL penicillin/streptomycin and 2 mM glutamine at 33° C.
Cell divisions were recorded by time-lapse microscopy using a Nikon Eclipse Ti Inverted Microscope. The curves represent the cumulative distribution of the abscission times in the indicated cell populations (see FIG. 3). […] Comparatively, abscission delay observed in Lowe patient cells was not corrected by treatment with o-3M3FBS.

Assay [4] deals with normal renal epithelial cells from a donor not mutated in OCRL1. In words: Abscission assay (time-lapse) in normal renal epithelial cells. It is filed as cell-based, human. The following applies: 25 μM, 60 hours time-lapse recording. The protocol:
Further tests were carried out using human cellular models for the Lowe syndrome. […] In this experiment, normal renal epithelial cells from a donor not mutated in OCRL1 and renal epithelial cells from a Lowe syndrome patient were grown in DMEM/F12 (Gibco BRL) supplemented with 10% fetal bovine serum, ITS supplemented, 4 pg/mL triiodothyronine, 36 ng/mL dexamethasone, 10 ng/ml EGF, 100 U/mL penicillin/streptomycin and 2 mM glutamine at 33° C. […] Cell divisions were recorded by time-lapse microscopy using a Nikon Eclipse Ti Inverted Microscope. The curves represent the cumulative distribution of the abscission times in the indicated cell populations (see FIG. 3). […] Comparatively, abscission delay observed in Lowe patient cells was not corrected by treatment with o-3M3FBS.

The subject of assay [5] is OCRL1-depleted HeLa cells. In words: Abscission assay (time-lapse) in OCRL1-depleted HeLa cells. It is filed as cell-based, human. The following applies: OCRL1 siRNA-depleted HeLa cells, 25 μM, 60 hours time-lapse recording, compared to DMSO alone. As to the method: as §2
Human HeLa epithelial cells were grown in DMEM medium (Gibco BRL) supplemented with 10% fetal bovine serum, 100 U/ml penicillin/streptomycin and 2 mM glutamine at 37° C. HeLa cells were depleted in OCRL1 by transfecting control siRNAs (5′-CGUACGCGGAAUACUUCGA-3′) or OCRL1 RNAi (5′-GAAAGGAUCAGUGUCGAUA-3′) specific siRNAs for 72 h before imaging using HiPerFect reagents (Qiagen).
Cell divisions were recorded by time-lapse microscopy using a Nikon Eclipse Ti Inverted Microscope. The curves represent the cumulative distribution of the abscission times in the indicated cell populations (see FIG. 5).

Assay [6] deals with wildtype zebrafish embryos. In words: Pronephric uptake of Alexa 488-10 kDa dextran in wildtype zebrafish embryos. It is filed as in vivo. The following applies: wildtype embryos at 72 hpf, 5 μM in the water, assessed 2 hours after tracer injection. The protocol: (§3) Finally, to test whether activation of PLC rescues phenotypes induced by loss of OCRL1 in an in vivo context, a previously established Ocrl−/− mutant zebrafish model for Lowe syndrome was used (Ramirez I. B. et al., 2012, Hum. Mol. Genet., 21, 1744-59, Oltrabella F., et al., 2015, PLoS Genetics, 11(4):e1005058). Wild type fish were of AB background.
(§4) Lysine-fixable 10 kDa dextran labelled with Alexa 488 (Molecular Probes) was prepared in PBS at 2 μg/μl final concentration. Zebrafish embryos at 72 hpf (hours post fertilisation) were treated for 60 minutes with DMSO control (0.005% DMSO), 5 μM m-3M3FBS or 5 μM o-3M3FBS by addition to the water. Embryos were then anaesthetised with 0.2 mg/ml MS222 (Sigma) in chorion water, and the tracer Alexa 488-10 kDa dextran (green) was injected into the common cardinal vein using a glass micropipette PLI-90 Pico-Injector (Harvard Apparatus). Embryos were returned to the respective drug treatments and incubated at 29° C. Pronephric accumulation was assessed 2 hours after injection on whole mount embryos using a fluorescent dissecting stereomicroscope (Leica MZ10F). Statistical analysis was performed using the Pearson's chi-squared test with Prism software (Prism Software Corporation).

For assay [7], the system named is Ocrl−/− mutant zebrafish embryos. In words: Pronephric uptake of Alexa 488-10 kDa dextran in Ocrl−/− mutant zebrafish embryos. It is filed as in vivo. The following applies: OCRL1 mutant embryos at 72 hpf, 5 μM in the water, assessed 2 hours after tracer injection. As to the method: as §3, §4

SMILES strings stand for the structures.

The values below come from patent publication US20200306213A1, “COMPOUNDS FOR USE IN THE TREATMENT OR PREVENTION OF LOWE SYNDROME OR DENT DISEASE AND METHODS THEREFOR” (Université de Montréal, priority 2017, published 2020).

With `Cc1cc(C)c(S(=O)(=O)Nc2cccc(C(F)(F)F)c2)c(C)c1` [m-3M3FBS, 2,4,6-trimethyl-N-(m-3-trifluoromethylphenyl) benzene sulfonamide], the “effect on cytokinesis (multinucleated cells)” value in assay [1] was “did not perturb cytokinesis”. Further, the “effect on cytokinesis failure / multi-nucleation rate” value in assay [2] is listed as “prevented cytokinesis failure”. Moreover, the “correction of abscission delay” value was “fully corrected” in assay [3] and “showed correction of the abscission delay” in assay [5]. In assay [4], the “effect on timing of abscission” value was “not affected”. In addition, in assay [6], the “effect on renal (pronephric) uptake of tracer” value is listed as “no effect upon renal uptake”. Moreover, the “rescue of endocytosis in the renal tubule (pronephric uptake of tracer)” value in assay [7] was “efficiently rescued endocytosis”.

In the case of `Cc1cc(C)c(S(=O)(=O)Nc2ccccc2C(F)(F)F)c(C)c1` [o-3M3FBS, reference compound], in assay [2], the “effect on cytokinesis failure / multi-nucleation rate” value is “did not significantly modify the multi-nucleation rate”. Besides, the “correction of abscission delay” value is “not corrected” in assay [3] and “no significant effect on abscission” in assay [5]. In assay [6], the “effect on renal (pronephric) uptake of tracer” value is on record as “no effect”. Besides, the “rescue of endocytosis in the renal tubule (pronephric uptake of tracer)” value in assay [7] was “no effect”.
